Data: patent US11453703B2, “Heterotandem bicyclic peptide complexes” (BicycleTX Limited, priority 2018, dated 2022)
Starred links: 1 amine or outer side, 2 acyl side, 3 side chain; linkers in the order of their positions; H or OH if unused. Positions of bridges follow the written chain, without caps; N, C: chain ends. Non-standard residues stand in square brackets, D forms with d. Residues, ends and D or L forms follow the SMILES beside them. Chains are numbered I, II in the order given. TATA = O=C(CC[*:1])N1CN(C(=O)CC[*:2])CN(C(=O)CC[*:3])C1; X2 = O=C(CCOCCOCCOCCOCCOCCn1cc(CCC(=O)[*:2])nn1)[*:1]; Hyp = O=C(O)[C@@H]1C[C@@H](O)CN1; hArg = N=C(N)NCCCC[C@H](N)C(=O)O; tBuAla = CC(C)(C)C[C@H](N)C(=O)O; Nle = CCCC[C@H](N)C(=O)O

Experiments:
CD137 [1] = biological target: T1, CD137 (Homo sapiens, UniProt Q07011); test: CD137 reporter assay, co-culture with PD-L1 expressing cell line RKO; format: cell-based; parameters: host or cells: Jurkat reporter cells; conditions: tumour target PD-L1, co-culture with RKO, 6 h
T1 sequence (Q07011 24-255): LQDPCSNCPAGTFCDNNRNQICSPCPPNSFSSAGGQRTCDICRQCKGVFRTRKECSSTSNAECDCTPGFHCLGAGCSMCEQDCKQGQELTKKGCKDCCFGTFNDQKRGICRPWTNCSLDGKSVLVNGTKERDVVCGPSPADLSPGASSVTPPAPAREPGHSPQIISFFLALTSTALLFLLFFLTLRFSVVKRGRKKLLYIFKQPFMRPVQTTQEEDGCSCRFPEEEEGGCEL
Method: (§1) Culture medium referred to as R1 media is prepared by adding 1% FBS to RPMI-1640 (component of Promega kit CS196005). Serial dilutions of test articles in R1 are prepared in a sterile 96 well-plate. Use 25 μl per well of test articles or R1 (as a background control) to designated wells in white cell culture plate. Tumour cells* are harvested and resuspended at a concentration of 400,000 cells/mL in R1 media. Twenty five (25) μL/well tumour cells are used in white cell culture plate. Jurkat cells (Promega kit CS196005, 0.5 mL) are thawed in the water bath and then added to 5 ml pre-warmed R1 medium. Twenty five (25) μL/well Jurkat cells are used in white cell culture plate. Incubate the cells and test articles for 6h at 37° C., 5% CO2. At the end of 6 h, add 75 μl/well Bio-Glo™ (Promega) and incubate for 10 min before reading luminescence in a plate reader (Clariostar, BMG). The fold change relative to cells (Jurkat cells+Cell line used in co-culture) is calculated and plotted in GraphPad Prism as log(agonist) vs response to determine EC50 (nM) and Fold Induction over background (Max)

CD137 [2] = biological target: T1, CD137; test: CD137 reporter assay, co-culture with EphA2 tumour cells; format: cell-based; parameters: host or cells: Jurkat reporter cells
Method: as §1

[3] = tumour target EphA2, co-culture with PC3, 6 h

SMILES | Fold Induction over Background (CD137 [1]) [fold] | EC50 (CD137 [2]; [3]) [nM] | Fold Induction over Background (CD137 [2]; [3]) [fold] | other results
CCCC[C@@H]1NC(=O)[C@H](Cc2ccc(O)cc2)NC(=O)[C@@H]2CCCN2C(=O)[C@H](CC(=O)O)NC(=O)[C@H](C)NC(=O)[C@H](Cc2ccccc2)NC(=O)[C@@H]2CSCCC(=O)N3CN(CN(C3)C(=O)CCSC[C@@H](C(=O)N[C@@H](C)C(N)=O)NC1=O)C(=O)CCSC[C@H](NC(C)=O)C(=O)N[C@@H](CC(C)(C)C)C(=O)N1CCC[C@H]1C(=O)N[C@@H](CCC(=O)O)C(=O)N[C@H](CCCCNC(=O)CCOCCOCCOCCOCCOCCOCCOCCOCCOCCOCCOCCOCCn1cc(CCC(=O)NCCCC[C@@H]3NC(=O)[C@H](CCC(N)=O)NC(=O)[C@@H]4CSCCC(=O)N5CN(CN(C5)C(=O)CCSC[C@@H](C(=O)N5CCC[C@H]5C(=O)N[C@@H](CO)C(=O)N[C@@H](Cc5c[nH]cn5)C(N)=O)NC(=O)[C@H](CC(C)C)NC(=O)[C@H](Cc5c[nH]cn5)NC(=O)[C@H](CC(C)C)NC3=O)C(=O)CCSC[C@H](NC(=O)[C@H](CCCCN)NC(=O)[C@H](CC(=O)O)NC(=O)[C@H](CO)NC(C)=O)C(=O)N[C@@H](CO)C(=O)N[C@@H](C)C(=O)NCC(=O)N[C@@H](Cc3c[nH]c5ccccc35)C(=O)N[C@@H](CC(C)C)C(=O)N[C@@H]([C@@H](C)O)C(=O)N[C@@H](CCSC)C(=O)N4)nn1)C(=O)N1CCC[C@H]1C(=O)N[C@@H](Cc1ccc(O)cc1)C(=O)N2 [BCY11018] | 7 | – | – | –
CCCC[C@@H]1NC(=O)[C@H](Cc2ccc(O)cc2)NC(=O)[C@@H]2CCCN2C(=O)[C@H](CC(=O)O)NC(=O)[C@H](C)NC(=O)[C@H](Cc2ccccc2)NC(=O)[C@@H]2CSCCC(=O)N3CN(CN(C3)C(=O)CCSC[C@@H](C(=O)N[C@@H](C)C(N)=O)NC1=O)C(=O)CCSC[C@H](NC(C)=O)C(=O)N[C@@H](CC(C)(C)C)C(=O)N1CCC[C@H]1C(=O)N[C@@H](CCC(=O)O)C(=O)N[C@H](CCCCNC(=O)Cn1cc(CCC(=O)NCCCC[C@@H]3NC(=O)[C@H](CCC(N)=O)NC(=O)[C@@H]4CSCCC(=O)N5CN(CN(C5)C(=O)CCSC[C@@H](C(=O)N5CCC[C@H]5C(=O)N[C@@H](CO)C(=O)N[C@@H](Cc5c[nH]cn5)C(N)=O)NC(=O)[C@H](CC(C)C)NC(=O)[C@H](Cc5c[nH]cn5)NC(=O)[C@H](CC(C)C)NC3=O)C(=O)CCSC[C@H](NC(=O)[C@H](CCCCN)NC(=O)[C@H](CC(=O)O)NC(=O)[C@H](CO)NC(C)=O)C(=O)N[C@@H](CO)C(=O)N[C@@H](C)C(=O)NCC(=O)N[C@@H](Cc3c[nH]c5ccccc35)C(=O)N[C@@H](CC(C)C)C(=O)N[C@@H]([C@@H](C)O)C(=O)N[C@@H](CCSC)C(=O)N4)nn1)C(=O)N1CCC[C@H]1C(=O)N[C@@H](Cc1ccc(O)cc1)C(=O)N2 [BCY11377] | 6 | – | – | –
CCCC[C@@H]1NC(=O)[C@H](Cc2ccc(O)cc2)NC(=O)[C@@H]2CCCN2C(=O)[C@H](CC(=O)O)NC(=O)[C@H](C)NC(=O)[C@H](Cc2ccccc2)NC(=O)[C@@H]2CSCCC(=O)N3CN(CN(C3)C(=O)CCSC[C@@H](C(=O)N[C@@H](CNC(=O)Cn3cc(CCC(=O)NCCC(=O)N(C)CC(=O)N(C)CC(=O)N(C)CC(=O)N(C)CC(=O)N(C)CC(=O)N(C)CC(=O)N(C)CC(=O)N(C)CC(=O)N(C)CC(=O)N(C)CC(=O)N[C@@H](C)C(=O)N[C@@H](CCCCNC(=N)N)C(=O)N[C@@H](CC(=O)O)C(=O)N[C@H]4CSCCC(=O)N5CN6CN(C5)C(=O)CCSC[C@H](NC(=O)[C@H](CC(C)C)NC(=O)[C@@H]5CCCN5C(=O)[C@H](CC(N)=O)NC(=O)[C@H](C(C)C)NC(=O)[C@H](CC(C)C)NC(=O)[C@@H]5C[C@@H](O)CN5C4=O)C(=O)N[C@@H](CC(C)C)C(=O)N[C@@H](Cc4c[nH]cn4)C(=O)N4CCC[C@H]4C(=O)N[C@H](CC(=O)O)C(=O)N[C@@H](Cc4c[nH]c5ccccc45)C(=O)N[C@@H](CCCCNC(=N)N)C(=O)N[C@H](C(N)=O)CSCCC6=O)nn3)C(N)=O)NC1=O)C(=O)CCSC[C@H](NC(C)=O)C(=O)N[C@@H](CC(C)(C)C)C(=O)N1CCC[C@H]1C(=O)N[C@@H](CCC(=O)O)C(=O)N[C@H](C)C(=O)N1CCC[C@H]1C(=O)N[C@@H](Cc1ccc(O)cc1)C(=O)N2 [BCY10577] | – | 0.28 | 37 | –
CCCC[C@@H]1NC(=O)[C@H](Cc2ccc(O)cc2)NC(=O)[C@@H]2CCCN2C(=O)[C@H](CC(=O)O)NC(=O)[C@H](C)NC(=O)[C@H](Cc2ccccc2)NC(=O)[C@@H]2CSCCC(=O)N3CN(CN(C3)C(=O)CCSC[C@@H](C(=O)N[C@@H](C)C(N)=O)NC1=O)C(=O)CCSC[C@H](NC(C)=O)C(=O)N[C@@H](CC(C)(C)C)C(=O)N1CCC[C@H]1C(=O)N[C@@H](CCC(=O)O)C(=O)N[C@H](CCCCNC(=O)CCc1cn(CCOCCOCCOCCOCCOCCC(=O)N[C@@H](C)C(=O)N[C@@H](CCCCNC(=N)N)C(=O)N[C@@H](CC(=O)O)C(=O)N[C@H]3CSCCC(=O)N4CN5CN(C4)C(=O)CCSC[C@H](NC(=O)[C@H](CC(C)C)NC(=O)[C@@H]4CCCN4C(=O)[C@H](CC(N)=O)NC(=O)[C@H](C(C)C)NC(=O)[C@H](CC(C)C)NC(=O)[C@@H]4C[C@@H](O)CN4C3=O)C(=O)N[C@@H](CC(C)C)C(=O)N[C@@H](Cc3c[nH]cn3)C(=O)N3CCC[C@H]3C(=O)N[C@H](CC(=O)O)C(=O)N[C@@H](Cc3c[nH]c4ccccc34)C(=O)N[C@@H](CCCCNC(=N)N)C(=O)N[C@H](C(N)=O)CSCCC5=O)nn1)C(=O)N1CCC[C@H]1C(=O)N[C@@H](Cc1ccc(O)cc1)C(=O)N2 [BCY10575] (I: A[hArg]DC[Hyp]LVNPLCLHP[dD]W[hArg]C-NH2 / II: Ac-C[tBuAla]PE[dK]PYCFADPY[Nle]CA-NH2; linker I:4-I:11-I:18, II:1-II:8-II:15 via TATA; linker I:N-II:5 via X2) | – | 0.62 | 38 | –
CCCC[C@@H]1NC(=O)[C@H](Cc2ccc(O)cc2)NC(=O)[C@@H]2CCCN2C(=O)[C@H](CC(=O)O)NC(=O)[C@H](C)NC(=O)[C@H](Cc2ccccc2)NC(=O)[C@@H]2CSCCC(=O)N3CN(CN(C3)C(=O)CCSC[C@@H](C(=O)N[C@@H](CNC(=O)CCOCCOCCOCCOCCOCCOCCOCCOCCOCCOCCOCCOCCn3cc(CCC(=O)NCCC(=O)N(C)CC(=O)N(C)CC(=O)N(C)CC(=O)N(C)CC(=O)N(C)CC(=O)N(C)CC(=O)N(C)CC(=O)N(C)CC(=O)N(C)CC(=O)N(C)CC(=O)N[C@@H](C)C(=O)N[C@@H](CCCCNC(=N)N)C(=O)N[C@@H](CC(=O)O)C(=O)N[C@H]4CSCCC(=O)N5CN6CN(C5)C(=O)CCSC[C@H](NC(=O)[C@H](CC(C)C)NC(=O)[C@@H]5CCCN5C(=O)[C@H](CC(N)=O)NC(=O)[C@H](C(C)C)NC(=O)[C@H](CC(C)C)NC(=O)[C@@H]5C[C@@H](O)CN5C4=O)C(=O)N[C@@H](CC(C)C)C(=O)N[C@@H](Cc4c[nH]cn4)C(=O)N4CCC[C@H]4C(=O)N[C@H](CC(=O)O)C(=O)N[C@@H](Cc4c[nH]c5ccccc45)C(=O)N[C@@H](CCCCNC(=N)N)C(=O)N[C@H](C(N)=O)CSCCC6=O)nn3)C(N)=O)NC1=O)C(=O)CCSC[C@H](NC(=O)[C@H](C)NC(C)=O)C(=O)N[C@@H]([C@@H](C)CC)C(=O)N[C@@H](CCC(=O)O)C(=O)N[C@@H](CCC(=O)O)C(=O)NCC(=O)N[C@@H](CCC(N)=O)C(=O)N[C@@H](Cc1ccc(O)cc1)C(=O)N2 [BCY7985] | – | – | – | induction of CD137 cell activity (CD137 [2]; Promega CD137 luciferase reporter assay, in the presence of EphA2-expressing HT1080 cells (FIG. 3)): strong induction of CD137 cell activity; CD137 induction (CD137 [2]; in the absence of HT1080 cells (FIG. 3)): no CD137 induction; Fold Induction over Background (CD137 [2]; tumour target EphA2, co-culture with SC-OV-3, 6 h): 15 fold
CCCC[C@@H]1NC(=O)[C@H](Cc2ccc(O)cc2)NC(=O)[C@@H]2CCCN2C(=O)[C@H](CC(=O)O)NC(=O)[C@H](C)NC(=O)[C@H](Cc2ccccc2)NC(=O)[C@@H]2CSCCC(=O)N3CN(CN(C3)C(=O)CCSC[C@@H](C(=O)N[C@@H](CNC(=O)CCOCCOCCOCCOCCOCCOCCOCCOCCOCCOCCOCCOCCn3cc(CCC(=O)NCCC(=O)N(C)CC(=O)N(C)CC(=O)N(C)CC(=O)N(C)CC(=O)N(C)CC(=O)N(C)CC(=O)N(C)CC(=O)N(C)CC(=O)N(C)CC(=O)N(C)CC(=O)N[C@H](C(=O)NCC(=O)N4CCC[C@H]4C(=O)N[C@H]4CSCCC(=O)N5CN6CN(C5)C(=O)CCSC[C@H](NC(=O)[C@@H]5CCCN5C(=O)[C@H]([C@@H](C)O)NC(=O)[C@@H]5CCCN5C(=O)[C@H](CC(=O)O)NC(=O)[C@H](Cc5c[nH]c7ccccc57)NC(=O)[C@H](CC(C)C)NC4=O)C(=O)N[C@@H](C)C(=O)N[C@@H](CC(N)=O)C(=O)N[C@@H](CC(C)C)C(=O)N[C@@H](Cc4c[nH]cn4)C(=O)N[C@@H](CC(C)C)C(=O)N[C@@H](CCCCNC(=N)N)C(=O)N[C@H](C(N)=O)CSCCC6=O)C(C)C)nn3)C(N)=O)NC1=O)C(=O)CCSC[C@H](NC(=O)[C@H](C)NC(C)=O)C(=O)N[C@@H]([C@@H](C)CC)C(=O)N[C@@H](CCC(=O)O)C(=O)N[C@@H](CCC(=O)O)C(=O)NCC(=O)N[C@@H](CCC(N)=O)C(=O)N[C@@H](Cc1ccc(O)cc1)C(=O)N2 [BCY8943] | – | – | – | fold induction at 0.1 µM (CD137 [2]; tumour target EphA2, co-culture with PC3, at 100 nM, read-out: Fold Induction over Background at 100 nM): < 2
